Laboratory results published in ChEMBL document CHEMBL1201862, “PubChem BioAssay data set” (2004).
Activity calls are given as the source filed them.

Legend:
[1] = biological target: T1, Short transient receptor potential channel 4 (Mus musculus, UniProt Q9QUQ5); experiment: block of DAMGO-driven TRPC4 calcium entry – cell-based, HEK293 TRPC4/mu-opioid, Fluo-4 calcium, dose response (AID 434942); assay type: functional;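 further: potency of inhibitors blocking the TRPC4 calcium response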
T1 sequence (Q9QUQ5 whole entry): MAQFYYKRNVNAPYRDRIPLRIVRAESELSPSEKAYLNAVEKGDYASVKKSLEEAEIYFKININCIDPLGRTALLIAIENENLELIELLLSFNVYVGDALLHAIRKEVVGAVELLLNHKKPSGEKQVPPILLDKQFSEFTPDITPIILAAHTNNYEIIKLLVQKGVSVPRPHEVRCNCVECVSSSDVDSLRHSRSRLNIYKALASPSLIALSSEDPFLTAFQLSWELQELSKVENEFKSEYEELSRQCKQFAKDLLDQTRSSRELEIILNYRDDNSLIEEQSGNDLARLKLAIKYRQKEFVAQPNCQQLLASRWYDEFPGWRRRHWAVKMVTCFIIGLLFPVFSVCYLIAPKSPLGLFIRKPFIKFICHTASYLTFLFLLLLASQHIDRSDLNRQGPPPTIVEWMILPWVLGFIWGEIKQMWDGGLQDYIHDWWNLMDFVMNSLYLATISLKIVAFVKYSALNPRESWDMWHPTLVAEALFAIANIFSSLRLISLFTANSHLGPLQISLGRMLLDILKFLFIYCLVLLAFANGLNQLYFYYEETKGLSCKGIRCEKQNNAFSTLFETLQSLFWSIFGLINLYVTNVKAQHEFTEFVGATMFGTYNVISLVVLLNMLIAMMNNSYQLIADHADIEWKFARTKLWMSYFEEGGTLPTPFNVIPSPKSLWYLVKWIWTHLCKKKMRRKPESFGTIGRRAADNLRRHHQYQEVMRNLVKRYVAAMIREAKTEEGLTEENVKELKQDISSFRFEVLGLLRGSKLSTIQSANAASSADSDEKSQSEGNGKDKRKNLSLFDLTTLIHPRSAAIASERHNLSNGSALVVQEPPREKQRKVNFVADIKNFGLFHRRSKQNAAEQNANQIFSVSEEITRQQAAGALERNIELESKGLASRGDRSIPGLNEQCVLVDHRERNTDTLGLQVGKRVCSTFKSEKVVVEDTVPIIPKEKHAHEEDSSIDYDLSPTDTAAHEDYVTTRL

Fatty acid synthase [2] = biological target: T2, Fatty acid synthase (Homo sapiens, UniProt P49327); experiment: inhibition of human FAS-TE enzyme activity – biochemical, endpoint fluorescence intensity, uHTS hits, dose response (AID 624327); assay type: functional;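 further: fluorescence from hydrolysis of an O-methyl fluorescein acyl ester substrate by the enzyme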
Fatty acid synthase [3] = biological target: T2, Fatty acid synthase; experiment: inhibition of human FAS-TE enzyme activity – biochemical, kinetic fluorescence intensity, dose response (AID 624326); assay type: functional;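 further: rate of fluorescence rise from hydrolysis of a fluorogenic O-methyl fluorescein ester substrate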
cells = assay type: functional
Genome polyprotein = Genome polyprotein (dengue virus type 2, UniProt P29990); experiment: flavivirus cap methylation enzyme inhibition – biochemical, confirmation dose response, primary screen (AID 588689); assay type: functional
[4] = biological target: Heat shock protein HSP 90-alpha (Homo sapiens, UniProt P07900); assay type: functional, organism-based
[5] = Luminescence Cell-Based Dose Retest to Confirm Inhibitors of Cancer Stem Cells. [Related pubchem assays (depositor defined):AID2717, AID2721]; assay type: functional; details: Homo sapiens
Cytochrome P450 2C9 = Cytochrome P450 2C9 (Homo sapiens, UniProt P11712)
Cytochrome P450 3A4 = Cytochrome P450 3A4 (Homo sapiens, UniProt P08684);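 further: CYP3A4 tested as one member of a cytochrome P450 panel screen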
[6] = tested on: Streptococcus sp. 'group A'; experiment: Streptococcus pyogenes SK(-)GAS viability under kanamycin – luminescence, BacTiterGlo, confirmation, counter-screen for streptokinase expression inhibitor project, dose response (AID 1900); assay type: functional, organism-based
Cytochrome P450 2C19 = Cytochrome P450 2C19 (Homo sapiens, UniProt P33261); experiment: Cytochrome panel assay with activity outcomes. Panel member name: p450-cyp2c19 Compounds with AC50 equal or less than 10 uM are considered active; assay type: functional; details: read-out: AC50
Streptococcus = experiment: GAS UMAA2166 growth inhibition – luminescence, BacTiterGlo, counter-screen for streptokinase expression inhibitor project, dose response (AID 1915); assay type: functional, organism-based;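 further: potency for reduction of bacterial viability or growth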
[7] = Vero E6 cell cytotoxicity, dose response, cytotoxicity control for non-replicating M. tuberculosis project, secondary assay (AID 492998); assay type: functional, VeroE6; details: Vero C1008
[8] = HepG2 cell cytotoxicity, dose response, cytotoxicity control for non-replicating M. tuberculosis project (AID 489018); assay type: functional; details: Mycobacterium tuberculosis
[9] = THP-1 cell cytotoxicity, dose response, cytotoxicity control for non-replicating M. tuberculosis project (AID 489025); assay type: functional
[10] = biological target: FAD-linked sulfhydryl oxidase ALR (Homo sapiens, UniProt P55789); experiment: ALR-catalysed DTT oxidation blockers – biochemical, H2O2 detection, luminescence, cherry-pick, dose response (AID 493248)
Streptokinase A = biological target: T3, Streptokinase A (Streptococcus pyogenes serotype M1, UniProt P10520); experiment: viability-normalized secreted streptokinase activity reduction – plasminogen activation absorbance, OD405, dose response (AID 1914); assay type: functional, Streptococcus pyogenes M1 GAS;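 further: secreted streptokinase activity via plasminogen activation per viability signal from cell pellet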
T3 sequence (P10520 whole entry): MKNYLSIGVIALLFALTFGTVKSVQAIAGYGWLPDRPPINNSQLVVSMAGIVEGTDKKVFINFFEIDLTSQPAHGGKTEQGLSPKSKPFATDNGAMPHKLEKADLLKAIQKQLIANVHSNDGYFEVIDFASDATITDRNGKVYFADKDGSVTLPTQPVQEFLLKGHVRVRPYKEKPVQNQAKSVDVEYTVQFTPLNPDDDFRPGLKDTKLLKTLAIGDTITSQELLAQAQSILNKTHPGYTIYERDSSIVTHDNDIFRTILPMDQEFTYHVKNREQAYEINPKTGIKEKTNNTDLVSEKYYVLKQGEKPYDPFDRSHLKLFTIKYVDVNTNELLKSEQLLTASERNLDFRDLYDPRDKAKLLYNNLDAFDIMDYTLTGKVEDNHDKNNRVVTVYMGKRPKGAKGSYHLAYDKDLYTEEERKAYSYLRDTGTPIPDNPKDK

Vero = experiment: cells; assay type: functional; details: Chlorocebus sabaeus
[11] = biological target: T4, High affinity choline transporter 1 (Homo sapiens, UniProt Q9GZV3); experiment: human choline transporter blockers, potency – cell-based, 5-point CRC, membrane potential dye, dose response (AID 504840); assay type: functional
T4 sequence (Q9GZV3 whole entry): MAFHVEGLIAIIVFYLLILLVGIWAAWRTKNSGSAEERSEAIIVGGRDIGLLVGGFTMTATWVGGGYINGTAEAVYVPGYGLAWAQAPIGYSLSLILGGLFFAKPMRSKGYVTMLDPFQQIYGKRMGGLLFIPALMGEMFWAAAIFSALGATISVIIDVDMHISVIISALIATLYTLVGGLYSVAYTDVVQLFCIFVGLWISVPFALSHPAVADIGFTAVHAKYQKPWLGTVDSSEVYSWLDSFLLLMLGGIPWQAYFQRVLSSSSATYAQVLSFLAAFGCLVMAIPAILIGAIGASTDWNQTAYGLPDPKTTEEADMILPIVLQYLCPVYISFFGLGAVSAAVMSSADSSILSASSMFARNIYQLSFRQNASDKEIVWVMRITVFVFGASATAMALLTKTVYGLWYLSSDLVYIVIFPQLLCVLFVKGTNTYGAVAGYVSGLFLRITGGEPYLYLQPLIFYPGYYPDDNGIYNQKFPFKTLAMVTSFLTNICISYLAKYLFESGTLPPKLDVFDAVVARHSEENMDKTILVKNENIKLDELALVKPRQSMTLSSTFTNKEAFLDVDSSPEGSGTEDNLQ

[12] = biological target: T5, DNA repair protein RAD52 homolog (Homo sapiens, UniProt P43351); assay type: functional, biochemical
T5 sequence (P43351 whole entry): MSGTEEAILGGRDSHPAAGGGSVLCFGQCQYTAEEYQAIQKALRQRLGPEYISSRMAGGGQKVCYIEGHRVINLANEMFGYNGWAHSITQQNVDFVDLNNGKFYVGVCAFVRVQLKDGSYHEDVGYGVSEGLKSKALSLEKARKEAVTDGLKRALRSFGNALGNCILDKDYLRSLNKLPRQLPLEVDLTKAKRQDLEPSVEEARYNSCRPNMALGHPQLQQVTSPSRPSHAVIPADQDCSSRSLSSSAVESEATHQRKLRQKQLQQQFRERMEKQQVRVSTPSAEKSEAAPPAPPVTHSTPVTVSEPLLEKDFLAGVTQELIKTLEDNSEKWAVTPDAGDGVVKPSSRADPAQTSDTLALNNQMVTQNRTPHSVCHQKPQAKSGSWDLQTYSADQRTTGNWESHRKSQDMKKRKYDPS

[13] = biological target: T6, Ubiquitin-conjugating enzyme E2 N (Homo sapiens, UniProt P61088); assay type: functional;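 further: Dose-response confirmation in a TR-FRET assay detecting UBC13-driven polyubiquitin chain formation, inhibition measured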
T6 sequence (P61088 whole entry): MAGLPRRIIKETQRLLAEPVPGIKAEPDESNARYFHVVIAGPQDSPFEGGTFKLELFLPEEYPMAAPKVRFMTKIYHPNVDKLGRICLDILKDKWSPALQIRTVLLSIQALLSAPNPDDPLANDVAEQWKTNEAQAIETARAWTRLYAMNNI

T2 sequence (P49327 whole entry): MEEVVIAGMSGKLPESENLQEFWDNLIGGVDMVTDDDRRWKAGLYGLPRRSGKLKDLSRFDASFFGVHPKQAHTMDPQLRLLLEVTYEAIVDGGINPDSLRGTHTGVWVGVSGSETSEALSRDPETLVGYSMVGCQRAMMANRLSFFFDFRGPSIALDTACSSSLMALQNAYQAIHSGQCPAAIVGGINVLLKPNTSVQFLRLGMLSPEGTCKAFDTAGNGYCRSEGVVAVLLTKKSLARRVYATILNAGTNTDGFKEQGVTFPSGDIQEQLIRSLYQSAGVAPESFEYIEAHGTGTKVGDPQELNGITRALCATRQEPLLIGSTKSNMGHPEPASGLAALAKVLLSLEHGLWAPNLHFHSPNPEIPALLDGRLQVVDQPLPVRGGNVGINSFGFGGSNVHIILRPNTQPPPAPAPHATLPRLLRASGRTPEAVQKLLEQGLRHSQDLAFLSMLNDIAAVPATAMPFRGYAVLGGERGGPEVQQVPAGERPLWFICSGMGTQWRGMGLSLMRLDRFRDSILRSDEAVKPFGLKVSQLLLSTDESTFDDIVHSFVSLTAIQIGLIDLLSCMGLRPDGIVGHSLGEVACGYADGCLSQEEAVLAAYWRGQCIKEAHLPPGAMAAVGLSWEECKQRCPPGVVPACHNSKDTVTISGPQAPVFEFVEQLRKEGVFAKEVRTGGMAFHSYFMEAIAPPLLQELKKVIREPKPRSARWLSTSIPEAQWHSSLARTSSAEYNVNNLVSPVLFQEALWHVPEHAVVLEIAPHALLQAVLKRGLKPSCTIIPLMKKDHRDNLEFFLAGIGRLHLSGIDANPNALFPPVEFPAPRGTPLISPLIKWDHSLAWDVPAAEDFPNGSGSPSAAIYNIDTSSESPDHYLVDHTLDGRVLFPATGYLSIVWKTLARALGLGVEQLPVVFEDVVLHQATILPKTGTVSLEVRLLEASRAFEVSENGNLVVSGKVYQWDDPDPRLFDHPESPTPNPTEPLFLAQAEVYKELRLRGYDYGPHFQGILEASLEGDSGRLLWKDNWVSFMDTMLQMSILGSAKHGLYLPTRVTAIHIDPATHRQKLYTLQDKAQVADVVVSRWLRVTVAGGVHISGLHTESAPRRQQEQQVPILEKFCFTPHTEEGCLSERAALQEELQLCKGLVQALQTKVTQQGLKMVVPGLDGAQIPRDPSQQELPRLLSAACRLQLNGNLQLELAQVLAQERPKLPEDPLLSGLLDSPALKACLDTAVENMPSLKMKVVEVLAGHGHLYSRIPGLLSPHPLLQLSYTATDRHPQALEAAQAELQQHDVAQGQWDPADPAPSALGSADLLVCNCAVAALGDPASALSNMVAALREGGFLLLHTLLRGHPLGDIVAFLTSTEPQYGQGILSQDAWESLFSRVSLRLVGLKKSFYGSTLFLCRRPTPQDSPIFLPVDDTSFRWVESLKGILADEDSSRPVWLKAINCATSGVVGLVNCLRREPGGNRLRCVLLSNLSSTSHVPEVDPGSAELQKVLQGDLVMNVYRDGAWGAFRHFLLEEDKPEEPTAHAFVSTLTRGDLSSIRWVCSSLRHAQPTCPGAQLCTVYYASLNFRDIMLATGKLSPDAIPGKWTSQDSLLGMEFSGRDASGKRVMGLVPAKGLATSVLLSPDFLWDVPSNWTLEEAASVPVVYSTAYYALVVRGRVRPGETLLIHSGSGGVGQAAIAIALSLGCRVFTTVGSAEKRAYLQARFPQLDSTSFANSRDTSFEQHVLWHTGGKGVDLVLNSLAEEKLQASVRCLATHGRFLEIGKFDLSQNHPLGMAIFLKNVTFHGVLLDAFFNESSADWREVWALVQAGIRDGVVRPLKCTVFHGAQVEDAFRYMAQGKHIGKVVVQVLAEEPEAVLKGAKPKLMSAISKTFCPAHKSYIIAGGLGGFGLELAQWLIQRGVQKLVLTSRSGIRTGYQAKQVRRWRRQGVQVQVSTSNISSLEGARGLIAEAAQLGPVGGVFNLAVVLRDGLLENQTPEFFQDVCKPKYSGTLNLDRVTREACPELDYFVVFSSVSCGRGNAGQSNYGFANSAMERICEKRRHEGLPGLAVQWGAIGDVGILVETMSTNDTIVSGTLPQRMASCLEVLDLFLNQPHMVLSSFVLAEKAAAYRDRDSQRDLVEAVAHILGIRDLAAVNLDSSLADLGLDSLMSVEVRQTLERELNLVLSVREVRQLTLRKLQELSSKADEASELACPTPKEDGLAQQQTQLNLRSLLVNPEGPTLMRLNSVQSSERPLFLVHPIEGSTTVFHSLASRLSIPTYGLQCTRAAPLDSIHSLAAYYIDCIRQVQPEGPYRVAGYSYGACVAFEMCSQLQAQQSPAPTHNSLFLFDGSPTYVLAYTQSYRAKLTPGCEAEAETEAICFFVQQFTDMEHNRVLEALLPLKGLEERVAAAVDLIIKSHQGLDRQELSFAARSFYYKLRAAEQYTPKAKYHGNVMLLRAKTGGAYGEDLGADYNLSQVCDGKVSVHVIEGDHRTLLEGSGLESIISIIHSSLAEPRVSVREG
Genome polyprotein, sequence (P29990 2492-3391 limits assumed): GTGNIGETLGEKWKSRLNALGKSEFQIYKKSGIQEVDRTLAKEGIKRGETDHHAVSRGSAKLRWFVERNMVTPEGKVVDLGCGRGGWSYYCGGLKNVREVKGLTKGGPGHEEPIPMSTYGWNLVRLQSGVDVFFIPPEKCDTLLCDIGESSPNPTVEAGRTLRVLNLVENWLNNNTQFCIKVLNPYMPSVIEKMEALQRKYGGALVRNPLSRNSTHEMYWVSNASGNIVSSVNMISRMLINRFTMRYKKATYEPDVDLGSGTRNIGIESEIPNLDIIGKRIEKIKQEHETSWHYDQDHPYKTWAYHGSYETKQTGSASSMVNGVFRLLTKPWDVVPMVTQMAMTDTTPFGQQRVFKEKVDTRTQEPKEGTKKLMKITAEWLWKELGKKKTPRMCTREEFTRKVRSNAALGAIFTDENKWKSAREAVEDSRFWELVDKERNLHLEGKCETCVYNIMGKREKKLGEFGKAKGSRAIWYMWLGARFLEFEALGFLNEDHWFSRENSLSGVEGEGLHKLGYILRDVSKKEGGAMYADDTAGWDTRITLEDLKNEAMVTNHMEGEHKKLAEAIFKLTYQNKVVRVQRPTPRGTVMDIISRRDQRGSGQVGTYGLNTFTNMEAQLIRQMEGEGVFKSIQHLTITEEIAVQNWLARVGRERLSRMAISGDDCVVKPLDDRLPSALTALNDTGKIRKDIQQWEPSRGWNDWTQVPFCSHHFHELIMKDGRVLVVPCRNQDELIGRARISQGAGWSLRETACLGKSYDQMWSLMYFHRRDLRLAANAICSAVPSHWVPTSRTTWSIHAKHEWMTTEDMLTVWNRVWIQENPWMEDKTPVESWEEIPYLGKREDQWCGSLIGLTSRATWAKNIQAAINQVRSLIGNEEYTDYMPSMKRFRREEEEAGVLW
Cytochrome P450 3A4, sequence (P08684 whole entry): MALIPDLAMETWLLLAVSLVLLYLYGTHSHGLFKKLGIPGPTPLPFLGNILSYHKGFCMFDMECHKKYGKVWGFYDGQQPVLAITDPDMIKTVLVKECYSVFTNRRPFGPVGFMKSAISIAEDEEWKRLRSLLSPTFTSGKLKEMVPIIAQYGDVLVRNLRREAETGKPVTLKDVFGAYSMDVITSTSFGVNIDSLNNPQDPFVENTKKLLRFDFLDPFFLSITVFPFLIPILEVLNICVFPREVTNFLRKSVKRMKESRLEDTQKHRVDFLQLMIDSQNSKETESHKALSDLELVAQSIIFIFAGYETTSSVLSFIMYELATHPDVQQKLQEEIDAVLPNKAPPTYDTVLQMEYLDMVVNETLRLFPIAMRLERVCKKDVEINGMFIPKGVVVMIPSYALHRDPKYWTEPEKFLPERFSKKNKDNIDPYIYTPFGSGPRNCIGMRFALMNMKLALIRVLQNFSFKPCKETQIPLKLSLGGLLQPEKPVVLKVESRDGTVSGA
Cytochrome P450 2C19, sequence (P33261 whole entry): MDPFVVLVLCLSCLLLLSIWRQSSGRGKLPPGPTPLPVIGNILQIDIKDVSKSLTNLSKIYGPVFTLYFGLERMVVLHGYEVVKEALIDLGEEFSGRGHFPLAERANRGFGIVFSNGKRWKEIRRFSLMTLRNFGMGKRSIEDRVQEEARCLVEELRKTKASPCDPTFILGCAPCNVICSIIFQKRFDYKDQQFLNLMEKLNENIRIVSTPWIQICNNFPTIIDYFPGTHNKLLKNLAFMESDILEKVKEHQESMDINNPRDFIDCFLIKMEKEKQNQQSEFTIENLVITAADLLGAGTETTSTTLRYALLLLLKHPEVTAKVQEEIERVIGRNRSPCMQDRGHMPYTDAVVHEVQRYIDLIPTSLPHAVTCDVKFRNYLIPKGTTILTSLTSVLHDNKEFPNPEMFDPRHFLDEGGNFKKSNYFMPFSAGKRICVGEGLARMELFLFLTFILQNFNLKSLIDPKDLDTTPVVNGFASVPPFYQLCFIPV
Cytochrome P450 2C9, sequence (P11712 whole entry): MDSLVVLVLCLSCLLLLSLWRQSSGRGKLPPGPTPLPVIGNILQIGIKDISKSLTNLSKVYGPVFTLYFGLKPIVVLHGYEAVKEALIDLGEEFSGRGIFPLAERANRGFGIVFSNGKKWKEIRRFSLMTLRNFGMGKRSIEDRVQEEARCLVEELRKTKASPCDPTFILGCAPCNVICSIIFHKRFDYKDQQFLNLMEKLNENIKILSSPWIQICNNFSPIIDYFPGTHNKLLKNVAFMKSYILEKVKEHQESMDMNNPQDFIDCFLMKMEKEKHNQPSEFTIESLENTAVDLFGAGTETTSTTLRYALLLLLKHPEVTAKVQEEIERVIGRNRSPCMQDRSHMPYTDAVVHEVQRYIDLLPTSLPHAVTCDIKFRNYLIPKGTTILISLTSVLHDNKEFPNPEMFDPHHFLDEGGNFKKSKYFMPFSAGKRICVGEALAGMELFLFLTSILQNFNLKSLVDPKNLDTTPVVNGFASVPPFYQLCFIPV
FAD-linked sulfhydryl oxidase ALR, sequence (P55789 whole entry): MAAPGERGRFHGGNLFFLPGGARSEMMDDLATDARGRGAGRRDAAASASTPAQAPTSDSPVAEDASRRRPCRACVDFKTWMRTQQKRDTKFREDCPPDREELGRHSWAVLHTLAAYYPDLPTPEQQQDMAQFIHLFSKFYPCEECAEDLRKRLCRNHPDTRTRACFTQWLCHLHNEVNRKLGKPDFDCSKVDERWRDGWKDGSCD

In the case of `Cc1ccc(S(=O)(=O)c2cnc(-c3ccccc3)nc2N2CCN(C)CC2)cc1`, the EC50 [1] is reported as 6.68 µM (active).

With `CC(C)Sc1nc2sc3c(c2c2nnc(SCC(=O)NCc4ccco4)n12)CCCC3` the EC50 [1] was 3.76 µM (active).

With `O=C(COC(=O)CC1CC2CCC1C2)Nc1cc([N+](=O)[O-])ccc1F` (stereo not drawn) the IC50 (Fatty acid synthase [2]) was 4.15 µM (active) and the IC50 (Fatty acid synthase [3]) was 3.72 µM (active).

With `CCc1nc2ccccc2n1Cc1ccccc1OC` the EC50 [1] was 10.6 µM (active).

In the case of `CCOC(=O)C1(CCc2ccccc2)CCN(Cc2ccccn2)CC1`, the IC50 (cells) is reported as 3.96 µM (active) and the EC50 [1] is reported as 4.22 µM (active).

With `O=C(CCC(=O)Nc1cccc(Cl)c1)N/N=C/c1cc([N+](=O)[O-])ccc1O` the IC50 (Fatty acid synthase [2]) was 4.21 µM (active) and the IC50 (Fatty acid synthase [3]) was 5.71 µM (active).

For `COc1ccccc1N1C(=O)NC(=O)/C(=C/c2ccc3c(c2)Cc2ccccc2-3)C1=O`, the IC50 (Genome polyprotein) was 59.4 µM (active).

With `O=C1Nc2ccc(F)cc2C12Nc1ccccc1-c1nnc(SCc3ccccc3)nc1O2` (stereo not drawn) the IC50 (Genome polyprotein) was 46.2 µM (active).

For `COc1ccc(S(=O)(=O)NC2CC3CCC2C3)cc1Br` (stereo not drawn), the AC50 [4] was 5.25 µM (active).

In the case of `Cn1ncc2c(Nc3cccc(Cl)c3)nc(Nc3cccc(Cl)c3)nc21`, the AC50 [5] is reported as 2.88 µM (active), the AC50 (Cytochrome P450 2C9) is reported as 7.94 µM (inconclusive) and the AC50 (Cytochrome P450 3A4) is reported as 6.31 µM (inconclusive). The EC50 [6] was 2.68 µM (active), the AC50 (Cytochrome P450 2C19) was 3.16 µM (inconclusive) and the AC50 [4] was 4.31 µM (active). For the same compound, the EC50 (Streptococcus) was 2.92 µM (active).

For `Cc1cccc(-c2cc3nc(C)c(C)c(NCCCn4ccnc4)n3n2)c1`, the IC50 (cells) was 9.68 µM (active), the CC50 [7] was > 20 µM (active) and the CC50 [8] was 16.4 µM (active). For the same compound, the CC50 [9] was 20.6 µM (active).

For `CN1C(=O)/C(=C/c2cccc([N+](=O)[O-])c2)C(=O)N1c1ccccc1`, the AC50 [10] was 0.533 µM (active) and the IC50 (Genome polyprotein) was 26.3 µM (active).

With `Oc1c2c(nc3c(-c4ccc(Cl)cc4)cnn13)CCC2` the IC50 (cells) was 12.2 µM (active), the CC50 [7] was 10.7 µM (active) and the EC50 (Streptokinase A) was > 150 µM (not active). The CC50 [8] was 12.7 µM (active), the EC50 [6] was 4.33 µM (active) and the EC50 (Streptococcus) was 12.3 µM (active). For the same compound, the CC50 [9] was 5.23 µM (active).

For `Cc1ccccc1[N+]1=C2CCCCN2C(O)(c2cccs2)C1` (stereo not drawn), the EC50 [1] was 2.37 µM (active).

For `Cc1ccc(OCC(=O)NNC(=S)NC(=O)c2ccc(Br)o2)c(C)c1`, the CC50 (Vero) was > 25 µM (active), the EC50 [6] was < 0.06 µM (active) and the EC50 [1] was 13.3 µM (active). For the same compound, the EC50 (Streptococcus) was 1.33 µM (active).

In the case of `COc1ccc(C(=O)Oc2c(CN3CCOCC3)cc(Cl)c3cccnc23)cc1OC`, the IC50 (cells) is reported as 34.6 µM (active), the CC50 [7] is reported as 8.82 µM (active) and the CC50 [8] is reported as 15 µM (active). For the same compound, the CC50 [9] was 12.2 µM (active).

With `O=C(CC1C[C@H](C(=O)N2CCOCC2)[C@@]2(CCC3CCCC3)c3[nH]c4ccccc4c3CCN2C1=O)NCCC1=CCCCC1` (stereo partly drawn) the IC50 (Fatty acid synthase [2]) was 22.2 µM (inactive) and the IC50 (Fatty acid synthase [3]) was 35.1 µM (inactive).

With `Cc1ccc(C(=O)CN(CCC(=O)O)S(=O)(=O)c2ccc([N+](=O)[O-])cc2)cc1` the IC50 (Fatty acid synthase [2]) was 5.88 µM (active) and the IC50 (Fatty acid synthase [3]) was 3.55 µM (active).

In the case of `CCN1CCN(CCNC(=O)c2ccc3nc(-c4cccc(C)c4)c(-c4cccc(C)c4)nc3c2)CC1`, the IC50 [11] is reported as 3.76 µM (active), the AC50 [12] is reported as 13.5 µM (active) and the IC50 [13] is reported as > 20 µM (inactive).
